Where “and” joins values, the source holds several entries; their conditions need not be identical. Equal values may be shown once. Inconclusive results and toxic doses are left out. How the source made its calls: active means survival T/C of 150% or more; inactive means T/C below 125% in these data.
Test system: P388 leukemia ip, CD2F1 mice, survival T/C
Test: NCI In Vivo Anticancer Drug Screen. Data for tumor model P388 Leukemia (intraperitoneal) in CD2F1 (CDF1) mice
Details: endpoint: median survival time, higher = longer survival
Procedure, shortened: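 Mice carrying the transplanted tumor received test compound or vehicle. Survival was recorded in each group, and the value is the treated-group measurement divided by that of the vehicle-treated control group.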

[1] = dose: 100.0 mg/kg/injection, schedule: Q01DX001 (ip), vehicle: saline with Tween-80
[2] = dose: 200.0 mg/kg/injection, schedule: Q01DX001 (ip), vehicle: saline with Tween-80
[3] = dose: 400.0 mg/kg/injection, schedule: Q01DX001 (ip), vehicle: saline with Tween-80
[4] = dose: 50.0 mg/kg/injection, schedule: Q01DX005 (ip), vehicle: Klucel (hydroxypropylcellulose) (HPC)
[5] = dose: 100.0 mg/kg/injection, schedule: Q04DX002 (ip), vehicle: saline with Tween-80
[6] = dose: 200.0 mg/kg/injection, schedule: Q04DX002 (ip), vehicle: saline with Tween-80
[7] = dose: 100.0 mg/kg/injection, schedule: Q04DX003 (ip), vehicle: saline with Tween-80
[8] = dose: 200.0 mg/kg/injection, schedule: Q04DX003 (ip), vehicle: saline with Tween-80

Measured: T/C

CC(=O)CC(=O)c1ccc(Br)cc1.CC(=O)CC(=O)c1ccc(Br)cc1.[Ni]
inactive: [1] 90 % of control | [2] 87 % of control | [3] 90 % of control

CC1=CC(=O)C(Cc2ccccc2)(c2ccc(O)cc2O)N1 (stereo not drawn)
inactive: dose: 100.0 mg/kg/injection, schedule: Q01DX001 (ip), vehicle: Klucel (hydroxypropylcellulose) (HPC) 101 % of control | dose: 200.0 mg/kg/injection, schedule: Q01DX001 (ip), vehicle: Klucel (hydroxypropylcellulose) (HPC) 97 % of control | dose: 400.0 mg/kg/injection, schedule: Q01DX001 (ip), vehicle: Klucel (hydroxypropylcellulose) (HPC) 89 % of control

O=C(c1ccccc1)c1nn(-c2ccccc2)c(=O)cc1-c1ccccc1
inactive: dose: 50.0 mg/kg/injection, schedule: Q01DX005 (ip), vehicle: saline with Tween-80 99 % of control | dose: 100.0 mg/kg/injection, schedule: Q01DX005 (ip), vehicle: saline with Tween-80 100 % of control | dose: 200.0 mg/kg/injection, schedule: Q01DX005 (ip), vehicle: saline with Tween-80 100 % of control

COc1cccc(C2OC3=C(Nc4ccc(Cl)cc4N3)C2=O)c1 (stereo not drawn)
inactive: [4] 93 % of control | dose: 100.0 mg/kg/injection, schedule: Q01DX005 (ip), vehicle: Klucel (hydroxypropylcellulose) (HPC) 104 % of control | dose: 200.0 mg/kg/injection, schedule: Q01DX005 (ip), vehicle: Klucel (hydroxypropylcellulose) (HPC) 90 % of control

CCOc1ccc2ccccc2c1C(Cc1ccccc1)NC (stereo not drawn)
inactive: dose: 12.5 mg/kg/injection, schedule: Q01DX005 (ip), vehicle: Klucel (hydroxypropylcellulose) (HPC) 99 % of control | dose: 25.0 mg/kg/injection, schedule: Q01DX005 (ip), vehicle: Klucel (hydroxypropylcellulose) (HPC) 93 % of control | [4] 99 % of control and 100 % of control

Cc1ccc(S(=O)(=O)N=N/C=C2/C=CC=CN2O)cc1
inactive: dose: 25.0 mg/kg/injection, schedule: Q01DX009 (ip), vehicle: Klucel (hydroxypropylcellulose) (HPC) 118 % of control and 121 % of control | dose: 50.0 mg/kg/injection, schedule: Q01DX009 (ip), vehicle: Klucel (hydroxypropylcellulose) (HPC) 119 % of control | dose: 200.0 mg/kg/injection, schedule: Q01DX009 (ip), vehicle: Klucel (hydroxypropylcellulose) (HPC) 124 % of control

CC1OC(OC2C(Oc3cc(O)c4c(c3)OC(c3ccc(O)cc3)CC4=O)OC(CO)C(O)C2O)C(O)C(O)C1O (stereo not drawn)
inactive: dose: 50.0 mg/kg/injection, schedule: Q01DX005 (ip), vehicle: saline 98 % of control | dose: 100.0 mg/kg/injection, schedule: Q01DX005 (ip), vehicle: saline 97 % of control | dose: 200.0 mg/kg/injection, schedule: Q01DX005 (ip), vehicle: saline 98 % of control

CCN(CC)[Se]c1ccccc1
inactive: [5] 101 % of control | [6] 100 % of control | dose: 400.0 mg/kg/injection, schedule: Q04DX002 (ip), vehicle: saline with Tween-80 98 % of control

CCCNC(C)(C)C(SSSC(c1ccc(C(F)(F)F)cc1)C(C)(C)NCCC)c1ccc(C(F)(F)F)cc1 (stereo not drawn)
inactive: [1] 100 % of control | [2] 104 % of control | [3] 100 % of control

COc1ccccc1N1C(=O)CSC1=S
inactive: dose: 100.0 mg/kg/injection, schedule: Q01DX009 (ip), vehicle: saline with Tween-80 86 % of control | [7] 90 % of control | dose: 200.0 mg/kg/injection, schedule: Q01DX009 (ip), vehicle: saline with Tween-80 90 % of control | [8] 90 % of control | dose: 400.0 mg/kg/injection, schedule: Q04DX003 (ip), vehicle: saline with Tween-80 100 % of control

Cc1cc(C)c(N(C)C)c(C)c1
inactive: [5] 109 % of control | [6] 110 % of control

Cc1ccc(Cl)c([N+](=O)[O-])c1N
inactive: [7] 104 % of control | [8] 104 % of control

CC1=C(C#N)C(=N)OC1(C)C1CC(=O)C=CC1=O (stereo not drawn)
inactive: dose: 60.0 mg/kg/injection, schedule: Q01DX005 (ip), vehicle: suspension in saline 119 % of control

[I][Hg][CH2]C1COCC([CH2][Hg][I])O1.[I][Hg][CH2]C1COCC([CH2][Hg][I])O1 (stereo not drawn)
inactive: dose: 3.13 mg/kg/injection, schedule: Q01DX009 (ip), vehicle: saline with Tween-80 109 % of control | dose: 3.13 mg/kg/injection, schedule: Q04DX003 (ip), vehicle: saline with Tween-80 109 % of control | dose: 6.25 mg/kg/injection, schedule: Q01DX009 (ip), vehicle: saline with Tween-80 113 % of control | dose: 6.25 mg/kg/injection, schedule: Q04DX003 (ip), vehicle: saline with Tween-80 86 % of control | dose: 12.5 mg/kg/injection, schedule: Q01DX009 (ip), vehicle: saline with Tween-80 118 % of control | dose: 12.5 mg/kg/injection, schedule: Q04DX003 (ip), vehicle: saline with Tween-80 100 % of control
